Common to all, as to assay: cAMP accumulation
Type in all cases: cell-based
What all share (conditions): mean ± S.E.M.; for Emax: cAMP maximal response, SEM; for EC50: cAMP, CV1-FlpIn cells, 30 min, IBMX

In assay [1] the target is T1, hCTR S292A (Homo sapiens, UniProt P30988, S292A).
T1 construct: expressed in transfected cells
T1 sequence (P30988 25-474 S292A): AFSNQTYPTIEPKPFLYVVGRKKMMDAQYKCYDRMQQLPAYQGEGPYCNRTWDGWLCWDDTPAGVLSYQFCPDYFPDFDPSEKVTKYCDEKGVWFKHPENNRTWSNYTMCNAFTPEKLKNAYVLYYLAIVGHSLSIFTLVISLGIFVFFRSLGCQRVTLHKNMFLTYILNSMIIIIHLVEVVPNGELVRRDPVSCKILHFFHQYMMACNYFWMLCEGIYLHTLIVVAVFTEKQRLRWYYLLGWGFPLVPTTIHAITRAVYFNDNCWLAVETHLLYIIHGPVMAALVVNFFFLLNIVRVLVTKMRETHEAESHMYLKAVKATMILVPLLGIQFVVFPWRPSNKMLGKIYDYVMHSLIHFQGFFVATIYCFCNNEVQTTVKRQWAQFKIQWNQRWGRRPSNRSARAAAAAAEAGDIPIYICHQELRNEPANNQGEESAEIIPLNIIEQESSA
In outline: (§1)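 Plated cells were incubated overnight and then challenged with rising ligand concentrations for 30 min alongside IBMX. Medium was replaced by absolute ethanol, which was evaporated at room temperature before cAMP determination. Values are normalized to 100 μM forskolin.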

In assay [2] the target is T2, hCTR Y372A (Homo sapiens, UniProt P30988, Y372A).
T2 construct: c-Myc (N); expressed in transfected cells
T2 sequence (P30988 25-474 Y372A): T1 sequence (P30988 25-474 S292A) with A268S, Y348A
In a few lines:
as §1

Assay [3] has as its target T3, hCTR N365A (Homo sapiens, UniProt P30988, N365A).
T3 construct: c-Myc (N); expressed in transfected cells
T3 sequence (P30988 25-474 N365A): T1 sequence (P30988 25-474 S292A) with A268S, N341A
In outline: as §1

Assay [4] concerns the target T4, hCTR L368A (Homo sapiens, UniProt P30988, L368A).
T4 construct: c-Myc (N); expressed in transfected cells
T4 sequence (P30988 25-474 L368A): T1 sequence (P30988 25-474 S292A) with A268S, L344A
In a few lines:
as §1

For assay [5], the target named is T5, hCTR H296A (Homo sapiens, UniProt P30988, H296A).
T5 construct: c-Myc (N); expressed in transfected cells
T5 sequence (P30988 25-474 H296A): T1 sequence (P30988 25-474 S292A) with A268S, H272A
In outline: as §1

Residue numbers refer to the chain shown, from its start. Where a SMILES comes first, the peptide text is derived from it. Bridges are numbered along the chain shown (N, C = ends).

Turning to `CC[C@H](C)[C@H](NC(=O)[C@H](C)NC(=O)[C@@H](NC(=O)[C@H](CCC(N)=O)NC(=O)[C@@H]1CCCN1C(=O)[C@H](Cc1ccccc1)NC(=O)[C@@H](NC(=O)[C@H](Cc1c[nH]cn1)NC(=O)[C@H](Cc1ccccc1)NC(=O)[C@H](CCCCN)NC(=O)[C@H](CC(N)=O)NC(=O)[C@H](Cc1ccccc1)NC(=O)[C@H](CC(=O)O)NC(=O)[C@H](CCC(N)=O)NC(=O)[C@@H](NC(=O)[C@H](Cc1ccc(O)cc1)NC(=O)[C@@H](NC(=O)CNC(=O)[C@H](CC(C)C)NC(=O)[C@H](CCSC)NC(=O)[C@@H]1CSSC[C@H](N)C(=O)NCC(=O)N[C@@H](CC(N)=O)C(=O)N[C@@H](CC(C)C)C(=O)N[C@@H](CO)C(=O)N[C@@H]([C@@H](C)O)C(=O)N1)[C@@H](C)O)[C@@H](C)O)[C@@H](C)O)[C@@H](C)O)C(=O)NCC(=O)N[C@H](C(=O)NCC(=O)N[C@@H](C)C(=O)N1CCC[C@H]1C(N)=O)C(C)C` [hCT], the Emax in assay [1] came out at 135 ± 13%; in assay [2], 149 ± 12%; in assay [3], 96 ± 4%; in assay [4] it was 70 ± 4%; in assay [5], 87 ± 4%.

As to `CC(C)C[C@H](NC(=O)CNC(=O)[C@H](C)NC(=O)[C@H](CC(C)C)NC(=O)[C@H](CCCNC(=N)N)NC(=O)[C@H](Cc1cnc[nH]1)NC(=O)[C@@H](NC(=O)[C@@H](NC(=O)[C@@H]1CSSC[C@H](NC(=O)[C@H](C)N)C(=O)N[C@@H](CC(=O)O)C(=O)N[C@@H]([C@@H](C)O)C(=O)N[C@@H](C)C(=O)N[C@@H]([C@@H](C)O)C(=O)N1)C(C)C)[C@@H](C)O)C(=O)N[C@@H](CC(C)C)C(=O)N[C@@H](CO)C(=O)N[C@@H](CCCNC(=N)N)C(=O)N[C@@H](CO)C(=O)NCC(=O)NCC(=O)N[C@H](C(=O)N[C@H](C(=O)N[C@@H](CCCCN)C(=O)N[C@@H](CC(N)=O)C(=O)N[C@@H](CC(N)=O)C(=O)N[C@@H](Cc1ccccc1)C(=O)N[C@H](C(=O)N1CCC[C@H]1C(=O)N[C@H](C(=O)N[C@@H](CC(N)=O)C(=O)N[C@H](C(=O)NCC(=O)N[C@@H](CO)C(=O)N[C@@H](CCCCN)C(=O)N[C@@H](C)C(=O)N[C@@H](Cc1ccccc1)C(N)=O)C(C)C)[C@@H](C)O)C(C)C)C(C)C)C(C)C` [hαCGRP], the Emax in assay [1] came out at 106 ± 14%; in assay [2], 36 ± 8%; in assay [3], 111 ± 13%; in assay [4], 78 ± 12%; in assay [5] it was 106 ± 18%. In addition, the EC50 was 22.4 nM in assay [1]; 123 nM in assay [2]; 15.5 nM in assay [3]; 11.5 nM in assay [4]; 14.1 nM in assay [5].

As for `CSCC[C@H](NC(=O)CNC(=O)[C@H](CO)NC(=O)[C@H](Cc1ccccc1)NC(=O)[C@H](CCCNC(=N)N)NC(=O)[C@H](Cc1c[nH]cn1)NC(=O)[C@H](Cc1ccccc1)NC(=O)[C@H](CC(N)=O)NC(=O)[C@H](CC(N)=O)NC(=O)[C@H](CC(C)C)NC(=O)[C@H](CC(N)=O)NC(=O)[C@H](CCCNC(=N)N)NC(=O)[C@H](Cc1c[nH]c2ccccc12)NC(=O)[C@H](Cc1ccc(O)cc1)NC(=O)[C@H](C)NC(=O)[C@H](CO)NC(=O)[C@H](CC(C)C)NC(=O)[C@@H](NC(=O)[C@@H]1CSSC[C@H](N)C(=O)N[C@@H](CO)C(=O)N[C@@H](CC(N)=O)C(=O)N[C@@H](CC(C)C)C(=O)N[C@@H](CO)C(=O)N[C@@H]([C@@H](C)O)C(=O)N1)C(C)C)C(=O)NCC(=O)N[C@@H](Cc1ccccc1)C(=O)NCC(=O)N1CCC[C@H]1C(=O)N[C@@H](CCC(=O)O)C(=O)N[C@H](C(=O)N1CCC[C@H]1C(N)=O)[C@@H](C)O` [pCT] (H-CSNLSTCVLSAYWRNLNNFHRFSGMGFGPETP-NH2; disulfide 1-7), the Emax was 131 ± 9% in assay [1]; 137 ± 13% in assay [2]; 95 ± 5% in assay [3]; 96 ± 6% in assay [4]; 96 ± 8% in assay [5]. Moreover, the EC50 was 0.0316 nM in assay [1]; 1.15 nM in assay [2]; 0.0316 nM in assay [3]; 0.0316 nM in assay [4]; 0.0316 nM in assay [5].

The term Emax denotes the greatest response seen or fitted, relative to the assay's reference. What is called EC50 is the concentration giving half of the maximal effect. A higher EC50 goes with weaker potency.

(Values after PMC5908784, “Extracellular loops 2 and 3 of the calcitonin receptor selectively modify agonist binding and efficacy” (Biochemical Pharmacology, 2018).)
